Patent US10799456B2, “Multiple drug lipid nanoparticle composition and related methods for extended drug levels in blood and lymph tissue” (priority 2015, dated 2020)

Tests used:
[1] = Tables 18 and 19; cited from earlier work
[2] = cited from earlier work
[3] = reported values; cited from earlier work
[4] = Intracellular drug concentration in peripheral blood mononuclear cells (PBMCs); format: in vivo, Macaca nemestrina
Description: Four macaques were divided into two treatment groups (two animals per group). […] Data were normalized to the anti-HIV LNP dose for comparative analysis.
Plasma was removed, PBMCs were isolated by the density gradient method, and cells were aliquoted into pellets of approximately 2 million PBMCs each. An inguinal lymph node was surgically excised 24 h after drug administration (n=2 per treatment), LNMCs were isolated by passage through a 100-lm nylon cell strainer (Corning, Tewksbury, Mass.), and cells were aliquoted into pellets of approximately 1-2 million LNMCs each. All samples were stored at −80° C. prior to drug analysis.
Plasma concentrations of all three drugs were analyzed simultaneously by liquid chromatography-tandem mass spectrometry using a recently published method. […] PBMC and LNMC pellets were lysed using 200 μl water/methanol (1:1 v/v), sonicated for 10 min, and then extracted and analyzed using the same method as cited above. Intracellular concentrations were converted to ng/ml with the assumption that each cell has a volume of 4×10^−9 ml.

Compound	LogP [1]	Water solubility @ 25° C. [2] [mg/mL]	% Drug Association to Particles, Liposomes [3] [%]	LNP/free ratio, mononuclear cells in blood ([4]; 0 h)	Lipid/Free Ratio, PBMCs ([4]; 0 h)	LNP/free ratio, mononuclear cells in blood ([4]; 0.5 h)	Lipid/Free Ratio, PBMCs ([4]; 0.5 h)	LNP/free ratio, mononuclear cells in blood ([4]; 1 h)	Lipid/Free Ratio, PBMCs ([4]; 1 h)	LNP/free ratio, mononuclear cells in blood ([4]; 3 h)	LNP/free ratio, mononuclear cells in blood ([4]; 5 h)	Lipid/Free Ratio, PBMCs ([4]; 5 h)	LNP/free ratio, mononuclear cells in blood ([4]; 8 h)	LNP/free ratio, mononuclear cells in blood ([4]; 8 h, listed as PMPA)	LNP/free ratio, mononuclear cells in blood ([4]; 8 h, listed as TFV)	LNP/free ratio, mononuclear cells in blood ([4]; 24 h)	Lipid/Free Ratio, PBMCs ([4]; 24 h)	LNP/free ratio, mononuclear cells in blood ([4]; 48 h)	LNP/free ratio, mononuclear cells in blood ([4]; 168 h)	Lipid/Free Ratio, PBMCs ([4]; 168 h)
CC(C)c1nc(CN(C)C(=O)N[C@H](C(=O)N[C@@H](Cc2ccccc2)C[C@H](O)[C@H](Cc2ccccc2)NC(=O)OCc2cncs2)C(C)C)cs1 [Ritonavir (RTV), Ritonavir]	6	–	–	–	–	–	–	–	–	–	–	–	–	–	–	–	–	–	–	–
C[C@H](Cn1cnc2c(N)ncnc21)OCP(=O)(O)O [Tenofovir (TFV), [(2R)-1-(6-aminopurin-9-yl)propan-2-yl]oxymethylphosphonic acid]	–	13.3	~5	1.0	1	0.3	0.3	0.4	0.4	0.5	4.6	4.6	59.0	over 50	over 50	70.0	70	>227.0	>25.0	>25.0
